Measurements from patent US12018096B2, “Potent peptide inhibitors of protein aggregation” (COUNCIL OF SCIENTIFIC & INDUSTRIAL RESEARCH, priority 2017, dated 2024).
“Also recorded” adds a separate entry of the source. No end group written: not given here.

Key:
[1] = test system: Rat phaeochromocytoma (PC12) cells; test: MTT assay with PC12 cells; assay type: cell-based
Description: MTT ((3-(4,5-Dimethylthiazol-2-yl)-2,5-diphenyltetrazolium bromide)) cell toxicity experiments were performed using Rat phaeochromocytoma (PC12) neuronal-like cells to assess toxicity of α-syn and the protective effects of the Pep.2 and CycPep.2 generated in this study. MTT assay (FIG. 5) was performed with PC12 cells incubated with α-syn fibrillation end products in presence and absence of peptides. […] However, with similar concentration of α-syn, the presence of Pep.2 and CycPep.2 improved cellular viability by 30% and >99% respectively.
MTT experiments were performed using Rat phaeochromocytoma (PC12) cells to assess cytotoxic effect of α-syn. Inhibition of PC12 cell redox activity is specific and early indicator of cell death. In MTT assay, water soluble MTT dye (3-(4, 5-dimethylthiazol-2-yl)-2,5-diphenyltetrazolium bromide) (#M2003 Sigma-Aldrich) is converted to formazan, and the conversion is monitored via absorbance measurement at 570 nm. The conversion of the MTT dye to formazan is dependent of redox status of the cell and thus the change in absorbance can be used as an indicator of the cellular viability in the assay.
PC12 cells were maintained in growth media RPMI 1640 supplemented with 10% horse serum, 5% fetal bovine serum, and antibiotics penicillin and streptomycin. […] The absorbance was measured at 570 nm using a multimode plate reader (TECAN infinite M200 PRO). […]

[2] = molecular target: T1, α-syn (Homo sapiens, UniProt P37840); test: In vitro fibrillation assay (Thioflavin T fluorescence); assay type: biochemical; conditions: α-syn 400 μM, purified peptide at equimolar concentration, 37° C., 900 rpm
T1 construct: His6 (N); made in house; host or cells: E. coli Rossetta (DE3), pET29a based expression vector
Description: ThT is a fluorescent dye which is known to bind specifically to […] rich fibrils, and such binding further increases its fluorescence intensity. The fibrillation assay was carried out with α-syn in the presence and absence of above identified interacting phages.
The N-terminal His6-tagged human wild-type α-syn was expressed in E. coli Rossetta (DE3) (#70954 Novagen) using pET29a based expression vector. After IPTG induction bacterial cell pellets were harvested by centrifugation and resuspended in 10 mM Tris-HCl, pH 8.0, 1 mM EDTA, 1 mM Pierce protease inhibitor cocktail. […] Briefly, cell lysis was carried out by sonication, lysate was boiled at 95° C. for 30 minutes, followed by centrifugation at 10,000×g for 30 minutes at 4° C. […] Protein was quantitated using BCA protein estimation kit as per manufacturer's protocol (#23227 Thermo Scientific).
Thioflavin T (ThT) (4 mM) was added to 400 μM of purified α-syn with and without phages (10^11) or purified peptides at equimolar concentration in a 96 microwell plate. The plate was incubated at 37° C. with a shaking speed of 900 rpm in linear mode in a multimode plate reader (TECAN infinite M200 PRO). Fluorescence kinetics was measured after every 15 minutes with emission wavelength of 482 nm upon excitation at 442 nm. […]

“Pep.2: SEQ ID NO 2; parent peptide identified from phage display against α-syn (Ac-SACNHHHHLHCGG; not fully specified; cysteine pairing not given here)” was tested, and the “α-syn associated toxicity in PC12 cells (absorbance at 570 nm)” value ([1]; 10 μM α-syn with peptide in equimolar ratio, 24 hours) was “reduced α-syn associated toxicity” and the “improved cellular viability in presence of α-syn” value ([1]; PC12 cells, α-syn fibrillation end products with peptide in equimolar ratio, 24 h, α-syn alone gives loss of viability by about 50%) was 30%.

For “Pep.2d: SEQ ID NO 1; truncated derivative of Pep.2 (HHHH; Sequence retrieved through Sequence logo)”, the “inhibition of α-syn fibrillation (ThT fluorescence)” value [2] was “inhibits α-syn fibrillation; also recorded: able to reduce α-syn fibrillation comparable with Pep.2”.
